# Source: US10208037B2, “Toll-like receptor-7 and -8 modulatory 1H imidazoquinoline derived compounds” (The University of Kansas, priority 2011, dated 2019)
# Key:
# TLR8 = molecular target: T1, TLR8 (Homo sapiens, UniProt Q9NR97); assay: TLR8 reporter gene assay (NF-κB induction, HEK-Blue-8 cells), agonism; type: cell-based
# T1 construct: expressed in transfected cells; host or cells: HEK293 (HEK-Blue-8 cells)
# T1 sequence (Q9NR97 27-1041): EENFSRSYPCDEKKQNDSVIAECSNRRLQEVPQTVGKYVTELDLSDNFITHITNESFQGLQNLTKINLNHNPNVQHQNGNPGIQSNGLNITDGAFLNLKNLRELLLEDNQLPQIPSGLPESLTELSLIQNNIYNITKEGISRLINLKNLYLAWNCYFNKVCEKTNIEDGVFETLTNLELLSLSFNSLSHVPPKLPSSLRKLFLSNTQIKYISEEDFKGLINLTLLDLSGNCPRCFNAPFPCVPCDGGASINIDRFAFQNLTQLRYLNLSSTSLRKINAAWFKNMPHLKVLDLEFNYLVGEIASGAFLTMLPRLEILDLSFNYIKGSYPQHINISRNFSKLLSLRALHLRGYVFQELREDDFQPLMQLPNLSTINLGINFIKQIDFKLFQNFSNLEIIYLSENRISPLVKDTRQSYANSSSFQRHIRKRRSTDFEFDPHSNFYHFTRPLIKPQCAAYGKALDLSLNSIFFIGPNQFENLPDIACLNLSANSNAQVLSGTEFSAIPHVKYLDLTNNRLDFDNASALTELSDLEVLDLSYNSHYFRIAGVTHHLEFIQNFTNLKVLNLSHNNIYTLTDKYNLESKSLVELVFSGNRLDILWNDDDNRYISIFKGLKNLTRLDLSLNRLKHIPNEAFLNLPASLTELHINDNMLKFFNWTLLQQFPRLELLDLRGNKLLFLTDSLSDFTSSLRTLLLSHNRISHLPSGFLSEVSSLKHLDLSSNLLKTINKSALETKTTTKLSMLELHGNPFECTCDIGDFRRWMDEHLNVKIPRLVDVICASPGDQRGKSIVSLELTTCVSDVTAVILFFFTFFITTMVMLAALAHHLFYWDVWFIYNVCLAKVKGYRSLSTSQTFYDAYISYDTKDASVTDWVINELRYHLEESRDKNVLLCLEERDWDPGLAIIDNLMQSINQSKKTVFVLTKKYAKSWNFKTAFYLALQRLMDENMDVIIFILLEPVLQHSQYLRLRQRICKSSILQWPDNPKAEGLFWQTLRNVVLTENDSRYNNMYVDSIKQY
# Excerpt: (§1) NF-κB induction: The induction of NF-κB was quantified using HEK-Blue-7 cells and HEK-Blue-8 cells as previously described by us.^8,24 HEK293 cells were stably transfected with human TLR7 (or human TLR8), MD2, and secreted alkaline phosphatase (sAP), and were maintained in HEK-Blue™ Selection medium containing zeocin and normocin. Stable expression of secreted alkaline phosphatase (sAP) under control of NF-κB/AP-1 promoters is inducible by the TLR7 (or TLR8) agonists, and extracellular sAP in the supernatant is proportional to NF-κB induction. HEK-Blue cells were incubated at a density of […] in a volume of 80 μL/well, in 384-well, flat-bottomed, cell culture-treated microtiter plates until confluency was achieved, and subsequently graded concentrations of stimuli. sAP was assayed spectrophotometrically using an alkaline phosphatase-specific chromogen (present in HEK-detection medium as supplied by the vendor) at 620 nm.
# (§2) The induction of NF-κB was quantified using HEK-Blue-3, HEK-Blue-7 and HEK-Blue-8 cells as previously described by us.^8,24,51 HEK293 cells were stably transfected with human TLR3 (or human TLR7 or human TLR8), MD2, and secreted alkaline phosphatase (sAP), and were maintained in HEK-Blue™ Selection medium containing zeocin and normocin. Stable expression of secreted alkaline phosphatase (sAP) under control of NF-κB/AP-1 promoters is inducible by the TLR3 (or TLR7 or TLR8) agonists, and extracellular sAP in the supernatant is proportional to NF-κB induction. HEK-Blue cells were incubated at a density of ˜10^5 cells/ml in a volume of 80 μl/well, in 384-well, flat-bottomed, cell culture-treated microtiter plates until confluency was achieved, and subsequently graded concentrations of stimuli. sAP was assayed spectrophotometrically using an alkaline phosphatase-specific chromogen (present in HEK-detection medium as supplied by the vendor) at 620 nm.
# TLR7 = molecular target: T2, TLR7 (Homo sapiens, UniProt Q9NYK1); assay: TLR7 reporter gene assay (NF-κB induction, HEK-Blue-7 cells), agonism; type: cell-based
# T2 construct: expressed in transfected cells; host or cells: HEK293 (HEK-Blue-7 cells)
# T2 sequence (Q9NYK1 27-1049): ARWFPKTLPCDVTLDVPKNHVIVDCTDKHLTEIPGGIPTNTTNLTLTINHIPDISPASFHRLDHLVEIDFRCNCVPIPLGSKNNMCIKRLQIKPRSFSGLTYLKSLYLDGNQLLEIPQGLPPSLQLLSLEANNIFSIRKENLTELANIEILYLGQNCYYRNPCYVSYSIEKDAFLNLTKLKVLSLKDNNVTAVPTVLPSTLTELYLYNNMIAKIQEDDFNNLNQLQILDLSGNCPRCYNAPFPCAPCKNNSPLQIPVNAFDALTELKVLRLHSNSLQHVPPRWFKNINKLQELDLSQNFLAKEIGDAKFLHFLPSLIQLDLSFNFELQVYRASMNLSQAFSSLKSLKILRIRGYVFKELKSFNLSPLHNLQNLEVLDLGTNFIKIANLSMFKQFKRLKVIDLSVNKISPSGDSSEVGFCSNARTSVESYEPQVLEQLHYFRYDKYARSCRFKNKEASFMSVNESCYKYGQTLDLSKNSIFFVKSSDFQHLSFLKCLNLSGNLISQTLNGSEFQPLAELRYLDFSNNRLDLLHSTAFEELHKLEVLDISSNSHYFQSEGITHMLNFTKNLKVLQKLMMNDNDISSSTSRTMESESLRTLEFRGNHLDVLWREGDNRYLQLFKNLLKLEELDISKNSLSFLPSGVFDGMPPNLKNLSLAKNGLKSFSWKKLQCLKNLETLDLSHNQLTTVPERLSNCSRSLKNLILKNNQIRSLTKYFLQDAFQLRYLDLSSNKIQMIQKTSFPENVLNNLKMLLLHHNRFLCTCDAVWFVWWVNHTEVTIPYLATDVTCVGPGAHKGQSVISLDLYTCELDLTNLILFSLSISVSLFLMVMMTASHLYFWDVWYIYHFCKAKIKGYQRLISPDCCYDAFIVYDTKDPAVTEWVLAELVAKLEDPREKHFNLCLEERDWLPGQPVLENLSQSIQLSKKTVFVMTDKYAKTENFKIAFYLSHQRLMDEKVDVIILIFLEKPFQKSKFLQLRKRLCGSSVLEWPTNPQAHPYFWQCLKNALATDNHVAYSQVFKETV
# Excerpt: as §1, §2
# [1] = tested on: human peripheral blood mononuclear cells; assay: IFN-α induction in human PBMCs (ELISA); type: cell-based; conditions: hPBMC, 12 h
# Experimental: FIG. 21 is a graph illustrating IFN-α induction by select dimers in human peripheral blood mononuclear cells. IFN-α was assayed by analyte specific ELISA after incubation of hPBMCs with graded concentrations of the test compound for 12 h.
# (§3) Aliquots (10^6 cells in 100 μL) of hPBMCs isolated from blood obtained from healthy human donors after informed consent by conventional Ficoll-Hypaque gradient centrifugation were stimulated for 12 h with graded concentrations of test compounds. The supernatant was isolated by centrifugation, diluted 1:20, and IFN-α was assayed in triplicate using a high-sensitivity human IFN-α-specific ELISA kit (PBL Interferon Source, Piscataway, N.J.).
# human PBMCs [2] = assay: Immunoassays for IFN-α, IFN-γ, IL-12 and IL-18 in human PBMCs; type: cell-based
# Experimental: Fresh human peripheral blood mononuclear cells (PBMC) were isolated from human blood obtained by venipuncture with informed consent and as per institutional guidelines on Ficoll-Hypaque gradients as described elsewhere.^53 Aliquots of PBMCs (10^5 cells in 100 µL/well) were stimulated for 12 h with graded concentrations of test compounds. Supernatants were isolated by centrifugation, diluted 1:20, and were assayed in triplicates using a high-sensitivity analyte-specific ELISA kits (PBL Interferon Source, Piscataway, N.J. and R&D Systems, Inc., Minneapolis, Minn.).
# rabbits = assay: Rabbit immunization model using bovine α-lactalbumin as model subunit vaccine; conditions: in vivo
# Excerpt: FIG. 18 illustrates ratios of Immune-1/pre-immune (after primary vaccination) and Immune-2/pre-immune (after Boost-1) anti-α-lactalbumin IgG titers in rabbits. FIGS. 19A and 19B are graphs illustrating TLR7 and TLR8 agonistic activities of the imidazoquinoline dimers in human TLR-specific reporter gene assays.
# FIG. 27 illustrates ratios of immune-1/pre-immune (after primary vaccination) and Immune-2/pre-immune (after Boost-1) anti-α-lactalbumin IgG titers in rabbits using the hybrids as adjuvants. Also shown are the IMDQ (7d) and PAM2CS, as well as IMDQ (7d)+PAM2CS mixture controls.
# human PBMCs [3] = assay: Proinflammatory cytokine induction in human PBMCs; type: cell-based
# Experimental: as §3, with “cytokines and chemokines were” for “IFN-α was”, “analyte-specific cytokine/chemokine bead array assays as reported by us previously.^74” for “a high-sensitivity human IFN-α-specific ELISA kit (PBL Interferon Source, Piscataway, N.J.).”
# outbred CF-1 mice = assay: Immunization of CF-1 mice with bovine α-lactalbumin, antibody ELISA; type: in vivo; conditions: relative to α-lactalbumin alone; boost Day 14, bled Day 21
# Experimental: FIGS. 10A-10D are graphs illustrating immunoglobulin profiles in outbred CF-1 mice immunized on Day 0 with 50 μg/animal of α-lactalbumin, or α-lactalbumin covalently coupled with 5 equivalents of 8, or α-lactalbumin mixed with 5 equivalents of 7d. Animals (5 per cohort) were boosted once on Day 14 exactly as mentioned above, and bled on Day 21. α-lactalbumin-specific immunoglobulin levels were quantified by standard antibody-capture ELISA, performed in liquid handler-assisted 384-well format.
# FIG. 11 is a graph illustrating affinity IgG ELISA showing antibody titer as a function of chaotrope (NaSCN) concentration. IgG titers on the ordinate axis were calculated from absorbance values at 0.25 (which corresponds to […] above that of naïve controls).
# All experiments were performed in accordance with animal care protocols approved by the University of Kansas IACUC Committee. […]
# A precision 2000 liquid handler (Bio-Tek, Winooski, Vt.) was used for all serial dilution and reagent addition steps, and a Bio-Tek ELx405 384-well plate washer was employed for plate washes; 100 mM phosphate-buffered saline (PBS) pH 7.4, containing 0.1% Tween-20 was used as wash buffer. […] Plates were then read at 450 nm using a SpectraMax M4 device (Molecular Devices, Sunnyvale, Calif.). […]
# Aqueous solubility = type: physicochemical
SMILES,TLR8-agonistic activity (in words) (TLR8),"EC50 (TLR8; Table 1, ND = not detected)","EC50 (TLR7; Table 1, ND = not detected, read-out: TLR7 Agonism)",IFN-α induction (in words) [1],TLR7-agonistic activity (in words) (TLR7),IFN-γ induction (in words) (human PBMCs [2]),"Adjuvantic activity, anti-α-lactalbumin IgG titers in rabbits (rabbits)",Proinflammatory cytokine induction (in words) (human PBMCs [3]),α-lactalbumin-specific antibody titers (outbred CF-1 mice),"Th1 bias (induction of IFN-α, IFN-γ, IL-12, IL-18) (human PBMCs [2])",Aqueous solubility (in words) (Aqueous solubility)
"CCCCc1nc2c(N)nc3ccccc3c2n1Cc1ccc(CNC(=O)CCCCCCCCCCC(=O)NCc2ccc(Cn3c(CCCC)nc4c(N)nc5ccccc5c43)cc2)cc1 [Compound 52c, N^1,N^12-bis(4-((4-amino-2-butyl-1H-imidazo[4,5-c]quinolin-1-yl)methyl)benzyl)dodecane Diamide]",displayed both TLR7 and TLR8 agonism,4780 nM,170 nM,most potent,,,,,,,
CCCCc1nc2c(N)nc3ccccc3c2n1Cc1ccc(CNC(=O)Cn2cc(CN(CCN(CCN(Cc3cn(CC(=O)NCc4ccc(Cn5c(CCCC)nc6c(N)nc7ccccc7c65)cc4)nn3)Cc3cn(CC(=O)NCc4ccc(Cn5c(CCCC)nc6c(N)nc7ccccc7c65)cc4)nn3)CCN(Cc3cn(CC(=O)NCc4ccc(Cn5c(CCCC)nc6c(N)nc7ccccc7c65)cc4)nn3)Cc3cn(CC(=O)NCc4ccc(Cn5c(CCCC)nc6c(N)nc7ccccc7c65)cc4)nn3)Cc3cn(CC(=O)NCc4ccc(Cn5c(CCCC)nc6c(N)nc7ccccc7c65)cc4)nn3)nn2)cc1 [Compound 43],loss of TLR8-stimulatory activity,,,,retaining in large measure the TLR7-agonistic activity,selective and complete loss of TLR8-associated IFN-γ,better than 7d,absence of proinflammatory cytokine induction,,,
"CCCCc1nc2c(N)nc3ccccc3c2n1Cc1ccc(CN)cc1 [Compound 7d, 1-(4-(Aminomethyl)benzyl)-2-butyl-1H-imidazo[4,5-c]quinolin-4-amine]",,,,,,,,,dramatic enhancements in antibody titers,prominent Th1 bias,excellent
